In ChEMBL document CHEMBL1201862, “PubChem BioAssay data set” (2004):
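Each compound was tested at five concentrations against cells in 96-well plates for 48 hours. GI50 is the concentration that inhibits growth by half.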 Active and inactive are the calls of the source. Cut-off read from the data, not from the text of the source: active = GI50 up to about 1.1 µM and inactive = higher.

Experiments:
Assay in all cases: DTP human tumour cell line panel, 48 h
SF-268 = tested on: SF-268
KM12 = tested on: KM12
HOP-62 = tested on: HOP-62
UO-31 = tested on: UO-31
CCRF-CEM = tested on: CCRF-CEM
NCI-H522 = tested on: NCI-H522
SK-MEL-2 = tested on: SK-MEL-2
IGROV-1 = tested on: IGROV-1
EKVX = tested on: EKVX
M14 = tested on: M14
SK-MEL-28 = tested on: SK-MEL-28
DU-145 = tested on: DU-145
MDA-N = tested on: MDA-N
SN12C = tested on: SN12C
UACC-257 = tested on: UACC-257
OVCAR-5 = tested on: OVCAR-5
SR = tested on: SR
CAKI-1 = tested on: CAKI-1
NCI-H23 = tested on: NCI-H23
UACC-62 = tested on: UACC-62
A498 = tested on: A498
NCI-H226 = tested on: NCI-H226
HL-60 = tested on: HL-60
MDA-MB-231 = tested on: MDA-MB-231
RPMI-8226 = tested on: RPMI-8226
SF-295 = tested on: SF-295
A549 = tested on: A549
OVCAR-8 = tested on: OVCAR-8
HCT-15 = tested on: HCT-15
U-251 = tested on: U-251
786-0 = tested on: 786-0
HOP-92 = tested on: HOP-92
OVCAR-4 = tested on: OVCAR-4
SK-MEL-5 = tested on: SK-MEL-5
K562 = tested on: K562
NCI/ADR-RES = tested on: NCI/ADR-RES
HT-29 = tested on: HT-29
ACHN = tested on: ACHN
SF-539 = tested on: SF-539
T47D = tested on: T47D
SW-620 = tested on: SW-620
MOLT-4 = tested on: MOLT-4
SNB-75 = tested on: SNB-75
MCF7 = tested on: MCF7
RXF 393 = tested on: RXF 393
NCI-H460 = tested on: NCI-H460
OVCAR-3 = tested on: OVCAR-3
COLO 205 = tested on: COLO 205
HCT-116 = tested on: HCT-116
MDA-MB-435 = tested on: MDA-MB-435
Hs-578T = tested on: Hs-578T
Malme-3M = tested on: Malme-3M
LOX IMVI = tested on: LOX IMVI
BT-549 = tested on: BT-549
SK-OV-3 = tested on: SK-OV-3
TK-10 = tested on: TK-10
PC-3 = tested on: PC-3

Measured: GI50

CC[N+](C)(CC)Cc1ccccc1[N+](=O)[O-]
inactive: SF-268 59.4 µM | KM12 > 100 µM | HOP-62 48.4 µM | UO-31 > 100 µM | CCRF-CEM > 100 µM | NCI-H522 > 100 µM | SK-MEL-2 > 100 µM | IGROV-1 > 100 µM | EKVX 32.3 µM | M14 > 100 µM | SK-MEL-28 > 100 µM | DU-145 > 100 µM | MDA-N > 100 µM | SN12C > 100 µM | UACC-257 > 100 µM | OVCAR-5 > 100 µM | SR > 100 µM | CAKI-1 > 100 µM | NCI-H23 > 100 µM | UACC-62 > 100 µM | A498 41.2 µM | NCI-H226 64.7 µM | HL-60 > 100 µM | MDA-MB-231 72.8 µM | RPMI-8226 > 100 µM | SF-295 > 100 µM | A549 > 100 µM | OVCAR-8 39.8 µM | U-251 53.7 µM | 786-0 > 100 µM | HOP-92 > 100 µM | OVCAR-4 > 100 µM | SK-MEL-5 > 100 µM | K562 > 100 µM | NCI/ADR-RES > 100 µM | HT-29 36.1 µM | ACHN > 100 µM | SF-539 > 100 µM | T47D > 100 µM | SW-620 87.7 µM | MOLT-4 > 100 µM | SNB-75 > 100 µM | MCF7 > 100 µM | RXF 393 > 100 µM | NCI-H460 > 100 µM | OVCAR-3 26.9 µM | COLO 205 46 µM | HCT-116 > 100 µM | MDA-MB-435 > 100 µM | Hs-578T > 100 µM | Malme-3M > 100 µM | LOX IMVI > 100 µM | BT-549 36 µM | SK-OV-3 > 100 µM | TK-10 > 100 µM | PC-3 44.8 µM
> 100 µM: HCT-15
